According to patent publication US3956495A, “2,4-Diaminoquinazolines as antithrombotic agents” (Eli Lilly and Company, priority 1973, dated 1976):
Structures can show the parent of a compound that is named as a salt.

Legend:
[1] = system: platelet aggregation to collagen challenge; test: Platelet aggregation inhibition to collagen challenge, in vivo-in vitro test after oral administration (Table II); design: species or system guinea pig; settings: stock suspension 1:4, blood one hour and three hours after dosing
Experimental: Briefly, the test procedure is as follows: blood samples are obtained from a guinea pig prior to the oral administration of the test compound. The test compound when is administered orally and blood samples withdrawn one hour and three hours after dosing. Each blood sample is treated as described in the in vitro test. The test requires one control group of six animals and six animals per compound per dose. For a more detailed description, see Herrmann et al., Proc. Soc. Exp. Biol. Med., 139, 548 (1972).

[2] = system: collagen-induced aggregation (platelet); test: Collagen-induced platelet aggregation inhibition, in vitro test (Table I); assay type: cell-based; settings: for inhibition at 41.7 µg/mL: 41.7 μg/ml; for inhibition at 167 µg/mL: 167 μg/ml; for inhibition at 10.4 µg/mL: 10.4 μg/ml
Excerpt: (§1) Exp. Biol. Med., 135, 100 (1970), and references cited therein.

[3] = system: ADP-induced aggregation (platelet); test: ADP-induced platelet aggregation inhibition, in vitro test (Table I); assay type: cell-based; settings: for inhibition at 167 µg/mL: 167 μg/ml
Excerpt: as §1

[4] = Platelet, collagen stock suspension 1:4
[5] = Platelet, collagen stock solution 1:32
[6] = Platelet, 83.4 μg/ml, collagen stock suspension 1:4

2,4-bispyrrolidinylquinazoline
% Inhibition of Aggregation to Collagen Challenge ([1]; 12.5 mg/kg): ≥ 20%
% Inhibition of Aggregation, Collagen ([2]; 2.6 μg/ml, collagen stock suspension undiluted): ≥ 20%
% Inhibition of Aggregation, Collagen ([2]; 83.4 μg/ml, collagen stock suspension 1:4): ≥ 20%

CN(C)c1nc(N(C)C)c2ccccc2n1 [2,4-bis(dimethylamino)quinazoline]
inhibition at 41.7 µg/mL [2, 4]: ≥ 20%

Clc1ccc2nc(N3CCOCC3)nc(N3CCOCC3)c2c1 [2,4-bismorpholino-6-chloroquinazoline]
inhibition at 167 µg/mL [2, 5]: 25%
inhibition at 167 µg/mL [3]: 3%

Cc1ccc2nc(N3CCOCC3)nc(N3CCOCC3)c2c1 [2,4-bismorpholino-6-methylquinazoline]
inhibition at 167 µg/mL [2, 5]: 62%
inhibition at 167 µg/mL [3]: 29%

c1ccc2c(N3CCOCC3)nc(N3CCOCC3)nc2c1 [2,4-bismorpholinoquinazoline]
inhibition at 10.4 µg/mL [2, 4]: 35%
inhibition at 5.2 µg/mL ([3]; 5.2 μg/ml): 51%

Clc1ccc2nc(N3CCCCC3)nc(N3CCCCC3)c2c1 [2,4-bispiperidino-6-chloroquinazoline]
inhibition at 167 µg/mL [2, 5]: 91%
inhibition at 167 µg/mL [3]: 61%

Cc1ccc2nc(N3CCCCC3)nc(N3CCCCC3)c2c1 [2,4-bispiperidino-6-methylquinazoline]
inhibition at 167 µg/mL [2, 5]: 21%
inhibition at 167 µg/mL [3]: 5%

c1ccc2c(N3CCCCC3)nc(N3CCCCC3)nc2c1 [2,4-bispiperidinoquinazoline]
inhibition at 50 mg/kg ([1]; Cavia porcellus, Platelet, 50 mg/kg): ≥ 20%
inhibition at 41.7 µg/mL [2, 4]: ≥ 20%

NCCNc1nc(N2CCOCC2)c2ccccc2n1 [2-(2-aminoethylamino)-4-morpholinoquinazoline dihydrochloride]
inhibition at 83.4 µg/mL [2, 6]: ≥ 20%

CN1CCN(c2nc(N)c3ccccc3n2)CC1 [2-(4-methylpiperazinyl)-4-aminoquinazoline hydrochloride]
inhibition at 83.4 µg/mL [2, 6]: ≥ 20%

CN1CCN(c2nc(N3CCOCC3)c3ccccc3n2)CC1 [2-(4-methylpiperazinyl)-4-morpholinoquinazoline]
inhibition at 2.6 µg/mL ([2]; Platelet, 2.6 μg/ml, collagen stock solution 1:32): 30%
inhibition at 83 µg/mL ([3]; 83 μg/ml): 44%

c1ccc2c(NC34CC5CC(CC(C5)C3)C4)nc(N3CCOCC3)nc2c1 [2-morpholino-4-(1-adamantylamino)quinazoline hydrochloride]
inhibition at 83.4 µg/mL [2, 6]: ≥ 20%

CCN(CC)CCNc1nc(N2CCOCC2)nc2ccccc12 [2-morpholino-4-(2-diethylaminoethylamino)quinazoline hydrochloride]
inhibition at 100 mg/kg ([1]; Cavia porcellus, Platelet, 100 mg/kg): ≥ 20%
inhibition at 41.7 µg/mL [2, 4]: ≥ 20%

CN1CCN(c2nc(N3CCOCC3)nc3ccccc23)CC1 [2-morpholino-4-(4-methylpiperazinyl)quinazoline dihydrochloride, dihydrate]
inhibition at 41.7 µg/mL [2, 4]: ≥ 20%

Nc1nc(N2CCOCC2)nc2ccccc12 [2-morpholino-4-aminoquinazoline]
inhibition at 41.7 µg/mL [2, 4]: ≥ 20%

CCN(CC)c1nc(N2CCOCC2)nc2ccccc12 [2-morpholino-4-diethylaminoquinazoline, 2-morpholino-4-diethylaminoquinazoline hydrochloride]
inhibition at 10.4 µg/mL [2, 4]: ≥ 20%

CCN(CC)CCNc1nc(N2CCCC2)nc2ccccc12 [2-pyrrolidinyl-4-(2-diethylaminoethylamino)quinazoline]
inhibition at 10.4 µg/mL ([2]; Platelet, collagen stock suspension undiluted): ≥ 20%
inhibition at 20.8 µg/mL ([2]; Platelet, 20.8 μg/ml, collagen stock suspension 1:4): ≥ 20%
